The source of these data is patent US20100137313A1 (ASTRAZENECA AB, priority 2008, published 2010).

S. pneumoniae Topoisomerase IV ATPase (ParE), sequence (Q59961 whole entry): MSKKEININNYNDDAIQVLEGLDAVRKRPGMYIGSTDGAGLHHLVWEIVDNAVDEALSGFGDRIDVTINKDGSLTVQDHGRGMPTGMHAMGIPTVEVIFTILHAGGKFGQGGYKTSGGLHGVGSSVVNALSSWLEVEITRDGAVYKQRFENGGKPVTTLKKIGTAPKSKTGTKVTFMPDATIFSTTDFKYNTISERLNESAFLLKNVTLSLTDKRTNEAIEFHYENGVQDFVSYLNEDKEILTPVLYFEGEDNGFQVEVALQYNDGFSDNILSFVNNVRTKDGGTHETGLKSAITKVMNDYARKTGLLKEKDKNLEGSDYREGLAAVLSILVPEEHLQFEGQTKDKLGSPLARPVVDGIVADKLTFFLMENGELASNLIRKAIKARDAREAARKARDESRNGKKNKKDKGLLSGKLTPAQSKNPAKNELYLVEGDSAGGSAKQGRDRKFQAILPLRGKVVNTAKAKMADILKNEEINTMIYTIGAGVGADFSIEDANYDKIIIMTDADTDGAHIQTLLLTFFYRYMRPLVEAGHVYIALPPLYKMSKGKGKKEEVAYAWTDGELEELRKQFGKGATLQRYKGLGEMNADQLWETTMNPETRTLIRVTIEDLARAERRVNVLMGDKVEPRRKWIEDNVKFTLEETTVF

The target of one assay is S. pneumoniae Topoisomerase IV ATPase (ParE) (Streptococcus pneumoniae serotype 4, UniProt Q59961). The experiment in a line: S. pneumoniae Topoisomerase IV ATPase inhibition. The assay is classed as biochemical. To be noted: values marked * are an average of two or more data points. The method in brief:
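Malachite green/ammonium molybdate phosphate detection, A650. 1.25 nM ParE, 160 μM ATP, sheared salmon sperm DNA 5 μg/ml, 20 mM Tris pH 8.0, 8.0 mM MgCl2. Controls: 2% DMSO = 0%, 20 μM EDTA = 100% inhibition; IC50 over 10 concentrations.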
Regarding “(E)-3-{3-[2-(3- Methoxy-5- tetrazol-1-yl- phenylamino)- 4-morpholin-4- yl-pyrimnidin-5- yl]-phenyl}- acrylic acid [Example 406]”, the “% Inh (13 μM) of S. pneumoniae Topoisomerase IV ATPase” value was determined as 99%.

The assay is the same for the next values; noted with them: values marked * are an average of two or more data points, read-out: % Inh (13 μM) of S. pneumoniae Topoisomerase IV ATPase.
For `COc1cc(Nc2ncc(-c3cnc(OC)c(C(=O)NS(C)(=O)=O)c3)c(-n3nc(C(F)(F)F)cc3C)n2)cc(OC)c1` [Example 909, 5-(2-(3,5-dimethoxyphenylamino)-4-(5-methyl-3-(trifluoromethyl)-1H-pyrazol-1-yl)pyrimidin-5-yl)-2-methoxy-N-(methylsulfonyl)nicotinamide], the inhibition at 13 µM turned out to be 100%. In the case of `COCCCNc1nc(Nc2ccc(F)c(Cl)c2)ncc1-c1nc(-c2cnoc2C)cs1` [Example 503, N^2-(3-chloro-4-fluorophenyl)-N^4-(3-methoxypropyl)-5-[4-(5-methylisoxazol-4-yl)-1,3-thiazol-2-yl]pyrimidine-2,4-diamine], the inhibition at 13 µM came out at 147%.

As for `OC1CCN(c2nc(Nc3ccc(F)c(Cl)c3)ncc2-c2cncnc2)C1` (stereo not drawn) [Example 66, 1-[2-[(3-chloro-4-fluorophenyl)amino]-5-pyrimidin-5-ylpyrimidin-4-yl]pyrrolidin-3-ol], the inhibition at 13 µM was 62.1%. `COc1cc(Nc2ncc(-c3cc(C(=O)NS(C)(=O)=O)c(=O)n(C)c3)c(-n3ccc(C(F)(F)F)n3)n2)cc(OC)c1` [Example 1019, 5-(2-(3,5-Dimethoxyphenylamino)-4-(3-(trifluoromethyl)-1H-pyrazol-1-yl)pyrimidin-5-yl)-1-methyl-N-(methylsulfonyl)-2-oxo-1,2-dihydropyridine-3-carboxamide]: the inhibition at 13 µM is 100%.

In the case of `O=C(O)c1cncc(-c2cnc(Nc3ccc(F)c(C(F)(F)F)c3)nc2N2CCOCC2)c1` [Example 437], the inhibition at 13 µM is 75%. On the same count and under the same terms, the same measure for `COCC(COC)NC(=O)c1cncc(-c2cnc(Nc3ccc(F)c(Cl)c3)nc2-n2nc(C(F)(F)F)cc2C)c1` [Example 935, 5-(2-(3-chloro-4-fluorophenylamino)-4-(5-methyl-3-(trifluoromethyl)-1H-pyrazol-1-yl)pyrimidin-5-yl)-N-(1,3-dimethoxypropan-2-yl)nicotinamide]: 100%. Consider `CCNC(=O)c1cccc(-c2cnc(Nc3ccc(F)c(Cl)c3)nc2NCCCN(C)C)c1` [Example 361, 3-(2-(3-chloro-4-fluorophenylamino)-4-(3-(dimethylamino)propylamino)pyrimidin-5-yl)-N-ethylbenzamide], for which the inhibition at 13 µM was 94.8%.

For the molecule `Cc1[nH]ncc1CCCNc1nc(Nc2ccc(F)c(Cl)c2)ncc1-c1cncc(C(=O)O)c1` [Example 274, 5-(2-(3-chloro-4-fluorophenylamino)-4-(3-(5-methyl-1H-pyrazol-4-yl)propylamino)pyrimidin-5-yl)nicotinic acid], the inhibition at 13 µM was 88%. With `CCOC(=O)/C=C/c1cccc(-c2cnc(Nc3ccc(F)c(Cl)c3)nc2N2CCN(S(C)(=O)=O)CC2)c1` [Example 174, (E)-ethyl 3-(3-(2-(3-chloro-4-fluorophenylamino)-4-(4-(methylsulfonyl)piper-azin-1-yl)pyrimidin-5-yl)phenyl)acrylate], the inhibition at 13 µM came to 52.1%. `Cc1cc(F)cc(Nc2ncc(-c3cncc(C(=O)O)c3)c(-n3ccc(C(F)(F)F)n3)n2)c1` [Example 770, 5-{2-[(3-fluoro-5-methylphenyl)-amino]-4-[3-(trifluoromethyl)-1H-pyrazol-1-yl]pyrimidin-5-yl}pyridine-3-carboxylic acid]: the inhibition at 13 µM was determined as 100%. For the molecule `COCCCNc1nc(Nc2ccc(F)c(Cl)c2)ncc1-c1nc(-c2ccn(C)n2)c(C(=O)O)s1` [Example 512, 2-{2-[(3-chloro-4-fluorophenyl)amino]-4-[(3-methoxypropyl)amino]pyrimidin-5-yl}-4-(1-methyl-1H-pyrazol-3-yl)-1,3-thiazole-5-carboxylic acid], the inhibition at 13 µM turned out to be 100%. Take `NC(=O)c1cncc(-c2cnc(Nc3ccc(F)c(Cl)c3)nc2-n2nc(C(F)F)cc2C(F)F)c1` [Example 539, 5-{4-[3,5-bis(difluoromnethyl)-1H-pyrazol-1-yl]-2-[(3-chloro-4-fluorophenyl)amino]pyrimidin-5-yl}pyridine-3-carboxamide]: the inhibition at 13 µM turned out to be 100%. Consider `COCCn1cc(C(=O)O)c(=O)c2cc(-c3cnc(Nc4ccc(F)c(Cl)c4)nc3N3CCOCC3)ccc21` [Example 303, 6-(2-(3-chloro-4-fluorophenylamino)-4-morpholinopyrimidin-5-yl)-1-(2-methoxyethyl)-4-oxo-1,4-dihydroquinone-3-carboxylic acid], for which the inhibition at 13 µM turned out to be 82%.

For the molecule `Fc1ccc(Nc2ncc(-c3cncnc3)c(NCCCN3CCOCC3)n2)cc1Cl` [Example 49, N^2-(3-chloro-4-fluorophenyl)-N^4-(3-morpholin-4-ylpropyl)-5-pyrimidin-5-ylpyrimidine-2,4-diamine], the inhibition at 13 µM amounted to 85.6%. `O=C(O)c1cncc(-c2cnc(Nc3ccc(F)c([N+](=O)[O-])c3)nc2N2CCOCC2)c1` [Example 436]: the inhibition at 13 µM was 69%. Still for that read-out and setting: then `COc1cccc(-c2cnc(Nc3ccc(F)c(Cl)c3)nc2NCCCN(C)C)c1` [Example 26, N^2-(3-chloro-4-fluorophenyl)-N^4-[3-(dimethylamino)propyl]-5-(3-methoxyphenyl)-pyrimidine-2,4-diamine], with 91.7%; and `COCCNc1nc(Nc2ccc(F)c(Cl)c2)ncc1-c1cncc(C(=O)O)c1` [Example 234, 5-[2-[(3-chloro-4-fluorophenyl)amino]-4-(2-methoxyethylamino)-pyrimidin-5-yl]pyridine-3-carboxylic acid], with 73.2%; and `Cc1cc(C(F)F)nn1-c1nc(Nc2ccc(F)c(Cl)c2)ncc1-c1cncc(C(N)=O)c1` [Example 538, 5-{2-[(3-chloro-4-fluorophenyl)amino]-4-[3-(difluoromethyl)-5-methyl-1H-pyrazol-1-yl]pyrimidin-5-yl}pyridine-3-carboxamide], with 100%. Consider `CC1(C)[C@@H](C(=O)O)[C@@H]1c1cccc(-c2cnc(Nc3ccc(F)cc3)nc2-n2ccc(C(F)(F)F)n2)c1` [Example 571, (1,3-trans)-3-(3-(2-(4-fluorophenylamino)-4-(3-(trifluoromethyl)-1H-pyrazol-1-yl)pyrimidin-5-yl)phenyl)-2,2-dimethylcyclopropanecarboxylic acid], for which the inhibition at 13 µM worked out at 17%. On to `COc1cc(F)cc(Nc2ncc(-c3cnc(OC)c(C(=O)O)c3)c(-n3nc(C(F)(F)F)cc3C)n2)c1` [Example 915, 5-(2-(3-fluoro-5-methoxyphenylamino)-4-(5-methyl-3-(trifluoromethyl)-1H-pyrazol-1-yl)pyrimidin-5-yl)-2-methoxynicotinic acid], for which the inhibition at 13 µM came out at 100%. `Cc1cc(C)n(-c2nc(Nc3ccc(F)c(Cl)c3)ncc2-c2cccc(/C=C/C(=O)O)c2)n1` [Example 321, (2E)-3-(3-{2-[(3-chloro-4-fluorophenyl)amino]-4-(3,5-dimethyl-1H-pyrazol-1-yl)pyrimidin-5-yl}phenyl)prop-2-enoic acid]: the inhibition at 13 µM stood at 83.7%.

As for `NC(=O)CCNc1nc(Nc2ccc(F)c(Cl)c2)ncc1-c1cncc(C(=O)O)c1` [Example 226, 5-[4-(2-Carbamoyl-ethylamino)-2-(3-chloro-4-fluoro-phenylamino)-pyrimidin-5-yl]-nicotinic acid], the inhibition at 13 µM stood at 79.5%. Same read-out and setting: the same measure for `Cc1cc(C(F)(F)F)nn1-c1nc(Nc2cc(Cl)cc(C#N)c2)ncc1-c1cncc(C(=O)O)c1` [Example 1123, 5-(2-(3-chloro-5-cyanophenylamino)-4-(5-methyl-3-(trifluoromethyl)-1H-pyrazol-1-yl)pyrimidin-5-yl)nicotinic acid]: 100%. For the molecule `CCOC(=O)c1cncc(-c2cnc(Nc3ccc(F)c(Cl)c3)nc2NCCN2CCOCC2)c1` [Example 100, 5-[2-(3-Chloro-4-fluoro-phenylamino)-4-(2-morpholin-4-yl-ethylamino)-pyrimidin-5-yl]-nicotinic acid ethyl ester], the inhibition at 13 µM was found to be 74.2%. For the molecule `CCOC(=O)c1cncc(-c2cnc(Nc3ccc(F)c(Cl)c3)nc2N2CCCC(CO)C2)c1` (stereo not drawn) [Example 118, ethyl 5-[2-[(3-chloro-4-fluorophenyl)amino]-4-[3-(hydroxymethyl)piper-idin-1-yl]pyrimidin-5-yl]pyridine-3-carboxylate], the inhibition at 13 µM amounted to 80.6%. In the case of `COc1cc(Nc2ncc(-c3cnc(OCCS(C)(=O)=O)c(C(=O)O)c3)c(-n3nc(C(F)(F)F)cc3C)n2)cc(OC)c1` [Example 965, 5-(2-(3,5-dimethoxyphenylamino)-4-(5-methyl-3-(trifluoromethyl)-1H-pyrazol-1-yl)pyrimidin-5-yl)-2-(2-(methylsulfonyl)ethoxy)nicotinic acid], the inhibition at 13 µM was found to be 100%.

Consider `Fc1ccc(Nc2ncc(-c3cncnc3)c(-n3cnc(C(F)(F)F)c3)n2)cc1Cl` [Example 84, N-(3-chloro-4-fluorophenyl)-4-[4-(trifluoromethyl)-1H-imidazol-1-yl]-5,5′-bipyrimidin-2-amine], for which the inhibition at 13 µM came to 79.6%. Still for that read-out and setting: then `O=C(O)CNc1nc(Nc2ccc(F)c(Cl)c2)ncc1-c1cncc(C(=O)O)c1` [Example 238, 5-[4-(carboxymethylamino)-2-[(3-chloro-4-fluorophenyl)amino]-pyrimidin-5-yl]pyridine-3-carboxylic acid], with 72.6%; and `CCOC(=O)c1cncc(-c2cnc(Nc3ccc(F)c(Cl)c3)nc2N2CCOC(CO)C2)c1` (stereo not drawn) [Example 978, Ethyl 5-(2-(3-chloro-4-fluorophenylamino)-4-(2-(hydroxymethyl)morpholino)pyrimidin-5-yl)nicotinate], with 82%.
